Laboratory results reported in patent publication US20090208425A1, “TRANSMUCOSAL ADMINISTRATION OF 2,3-DIMETHOXY-5-METHYL-6-(10-HYDROXYDECYL)-1,4-BENZOQUINONE” (SANTHERA PHARMACEUTICALS (SCHWEIZ) AG, priority 2006, published 2009).
Read-outs that look alike come from different tables or passages of the source.

Legend:
[1] = Pharmacokinetics after sublingual (oromucosal) vs. oral delivery of idebenone micro-emulsion in dogs; format: in vivo, Beagle dogs; details: for Cmax / Tmax / AUC(0-t): beagle, dog, mean; for AUC(0-t): read-out: AUC0-480 of idebenone (converted)
Method: Quantification of idebenone was performed by liquid chromatography (LC) coupled on-line with tandem mass spectrometry (MS/MS). Calibration samples were prepared in human plasma and quality control (QC) samples were prepared in dog plasma.
150 μl of dog plasma were treated with 10 μl of an EDTA solution, prepared by dissolution of 1245 mg EDTA-potassium salt in 33 ml of 1M NH4OAc, and 300 μl of Methanol. After vigorous shaking, samples were centrifuged for 45 minutes with 1960 RCF at 4° C. A 50 μl aliquot of the supernatant was injected into the LC-MS/MS system. All unknown, calibration and QC samples were subjected to the same assay procedure.
Idebenone was separated and quantified by HPLC-MS/MS: For HPLC, a Synergi™ 4μ MAX-RP (50×2 mm) column (Phenomenex, Schlieren, Switzerland) was used. Column temperature: 50° C. Mobile phase A: water+30 mM NH4OAc; mobile phase B: MeOH/H2O 100/3 (v/v)+30 mM NH4OAc, gradient elution (table 4). Flow: 250 μl/min and 400 μl/min.
Once separated, idebenone was quantified by ESI-MS/MS (API 4000, Perkin-Elmer-Europe BV, Rotkreuz, Switzerland) in positive mode.
Idebenone conjugates such as glucuronates and sulphates have been quantified after acidic hydrolysis as described by R. Artuch, C. Colomé, M. A. Vilaseca, A. Aracil. M. Pineda, J. Neurosci. Meth. 115 (2002), 63-66.
Plasma levels of idebenone were studied after the administration of a micro-emulsion, prepared as described in example 1, to dogs (n=3). The sublingual administration of 4 mg/kg was compared with 40 mg/kg oral administration in a cross-over design. Blood samples were collected for 8 hours after administration. Concentrations of idebenone in plasma were measured by HPLC-MS/MS as described in example 4 and pharmacokinetic parameters were calculated.
The pharmacokinetic analysis included maximum plasma concentration (Cmax), the time when maximum plasma concentration was observed (Tmax), and the area under the plasma concentrations versus time curve from time 0 h to 480 min (AUC0-480min). The relative bioavailability of idebenone after sublingual administration compared to the oral administration was calculated for each dog from normalized (1 mg/kg) AUC values. The AUC ratios of the metabolites were also calculated. In addition, Cmax ratios, normalized to a 1 mg/kg dose, were calculated.

[2] = First-pass hepatic metabolism of idebenone after oral administration; format: in vivo; details: after absorption in the gut (oral administration)
Source text: As a lipophilic compound idebenone is well absorbed in the gastrointestinal tract after conventional oral administration, which is the normal route for administering said compound. Dosage forms such as tablets or capsules have been used in clinical trials and as marketed product. In the course of our investigations on the pharmacological profile of idebenone, we discovered that the compound, after being absorbed in the gut, is metabolized very quickly during its first passage through the liver (“first-pass-effect”). […] Hepatic metabolism of idebenone results in side chain oxidation, reduction of the quinone ring, sulphate and glucuronide conjugation and subsequent renal excretion. The high first-pass-effect leads to a fast reduction of pharmacologically active plasma levels of free idebenone. Because of this strong first pass metabolism, oral administration of idebenone requires high doses of the compound to achieve pharmacologically efficacious plasma levels in the body. Said high doses can result in unwanted side effects such as diarrhea.

[3] = 536 patients, up to 360 mg idebenone t.i.d.; cited from earlier work
[4] = 4 mg/kg oro-mucosal (sublingual), micro-emulsion of example 1, dogs n=3, plasma
[5] = 40 mg/kg oral (p.o.), dogs n=3, plasma
[6] = oromucosal (4 mg/kg) vs. oral (40 mg/kg), normalized to a 1 mg/kg dose, dogs

Cmax [1, 4]: 106 ng/mL
Tmax [1, 4]: 6.3 min
AUC(0-t) [1, 4]: 21.1 ng·h/mL
Cmax [1, 5]: 31.9 ng/mL
Tmax [1, 5]: 22.7 min
AUC(0-t) [1, 5]: 18 ng·h/mL
AUC ratio, idebenone (normalized for dose) [1, 6]: 11.1
Cmax ratio, idebenone (normalized for dose) [1, 6]: 36.8
idebenone metabolized during its first passage through the liver [2]: more than 98%
Compound: COC1=C(OC)C(=O)C(CCCCCCCCCCO)=C(C)C1=O [idebenone, 2,3-dimethoxy-5-methyl-6-(10-hydroxydecyl)-1,4-benzoquinone]
treatment emergent adverse events compared to placebo [3]: no treatment emergent adverse events except some gastrointestinal irritations as well as a slight increase in orthopedic events
